How the values were obtained:
Format in all cases: physicochemical
[1] = Rotating disk dissolution in HCl
From the text: Dissolution data are often collected in terms of amount dissolved curve vs. time. This is the case for rotating disk experiments due to the nature of the apparatus, i.e., batch operation. In rotating disk experiments, a change in solid form (such as salt form, polymorph form, amorphous to crystalline form) is indicated by a change in slope in a cumulative dissolution curve. A change of slope signifies a change in dissolution rate. […] In FIG. 20, the change in slope occurs at approximately 45 minutes, although it is difficult to determine an exact time due to some curvature in the plot.
These phenomena can be better understood by plotting a dissolution rate vs. time curve. For the rotating disk, data are still collected in a cumulative manner; however, further data treatment makes a change in slope easier to recognize. From a cumulative amount dissolved curve the slope between each set of adjacent points is taken and plotted against the midpoint of time. Using this method, it is easier to point out the time when the dissolution rate changes and determine the terminal dissolution rate. The resultant plot is a dissolution rate vs. time curve.

[2] = Flow-through apparatus dissolution in HCl with stereomicroscope imaging; conditions: flow cell
Description: A flow-through apparatus associated with the present disclosure was tested using a model compound. Triamterene free base was chosen as the model compound as this is readily available and there is literature available on its various salt forms. An advantage of an apparatus associated with the present disclosure is that the user is able to observe the solid during dissolution. The following experimental results are preliminary data for a flow-through apparatus experiment (before the compression step was controlled). Approximately 20 mg of a sample drug was compressed in an insert for dissolution. Flow-through experiments were performed using 0.1N or 0.001N HCl as the dissolution medium pumped through a dissolution channel at 5 ml/min and 25 ml/min. Triamterene concentration in the effluent was measured by UV analysis at 370 nm. […] With the flow cell mounted in a jig so that it is tilted slightly, it is possible to capture images that show the face of the drug compact that is exposed to the fluid as well as the “control” dry surface face adjacent to the glass plate. Flow is from left to right in the following figures of Triamterene Free Base Dissolution in 0.1 N HCl at 25 ml/min: FIG. 23 at t=0; FIG. 24 at t=5 min; FIG. 25 at t=10 min; FIG. 26 at t=15 min; FIG. 27 at t=20 min; FIG. 28 at 25 minutes.

[3] = Rotating disk (Wood's die) dissolution, 10−4N NaOH; conditions: for Dissolution Rate: rotating disk, 900 ml 10−4N NaOH, room temperature
Description: In order to test an apparatus associated with the present disclosure against a rotating disk apparatus, the dissolution rate of Triamterene free base was determined in dilute NaOH. The dissolution media was chosen to be 10−4N NaOH, since at alkaline pH, the Triamterene free base is not ionized. This condition makes theoretical comparisons of flux easier since it is not necessary to account for multiple species (ionized and unionized species) and Levich's mathematical solution for dissolution from a rotating disk transport is valid. Rotating disk dissolution was run in a standard dissolution apparatus at 25, 80 and 200 rpm. The dissolution medium was 900 ml of 10−4 N NaOH at room temperature (since the flow cell has no temperature control at this time). The Wood's die apparatus has an exposed drug surface area of 0.5 cm^2. Approximately 125 mg of Triamterene free base was compressed into the die using a Carver Press. The compression conditions were 5000 lbs of force for 30 seconds. Triamterene was detected via fluorescence with excitation at 370 nm and emission at 432 nm. The rotating disk results are shown in FIG. 29 for each rotation speed. As expected, an increase in rotation speed leads to an increase in dissolution rate. The dissolution rate for the entire experiment is represented by the slope of this line. Because this is the Triamterene free base dissolving in alkaline conditions, it is not expected to undergo a conversion, thus a constant dissolution rate vs. time curve is expected. However, interesting results can be seen in FIG. 30 showing dissolution rate vs. time data. […] The data from FIGS. 32 and 33 were used to estimate the dissolution rate at each volumetric flow rate for FIG. 34.

[4] = Dissolution in flow-through apparatus (flow cell), 10−4N NaOH; conditions: for Dissolution Rate: 10−4N NaOH, room temperature
Description: In order to test an apparatus associated with the present disclosure against a rotating disk apparatus, the dissolution rate of Triamterene free base was determined in dilute NaOH. The dissolution media was chosen to be 10−4N NaOH, since at alkaline pH, the Triamterene free base is not ionized. This condition makes theoretical comparisons of flux easier since it is not necessary to account for multiple species (ionized and unionized species) and Levich's mathematical solution for dissolution from a rotating disk transport is valid. Dissolution rate was also studied in an exemplary flow-through apparatus associated with the present disclosure. The dissolution medium (10−4N NaOH) was run continuously at 0.5, 1.5, 7.0, 20 mL/min. Triamterene free base was compressed into the insert by a mini-vise. Since a pressure reading is not possible on this vise, the mass of the drug in the insert was recorded and the porosity was calculated by using the dimensions of the insert, thickness of the drug compact and true density of the Triamterene free base as measured by pycnometry. Porosity of 10% or less was considered acceptable. Triamterene was detected via fluorescence with excitation at 370 nm and emission at 432 nm. The rotating disk results are shown in FIG. 29 for each rotation speed. As expected, an increase in rotation speed leads to an increase in dissolution rate. The dissolution rate for the entire experiment is represented by the slope of this line. Because this is the Triamterene free base dissolving in alkaline conditions, it is not expected to undergo a conversion, thus a constant dissolution rate vs. time curve is expected. However, interesting results can be seen in FIG. 30 showing dissolution rate vs. time data. […] The data from FIGS. 32 and 33 were used to estimate the dissolution rate at each volumetric flow rate for FIG. 34.

Compound | Comparison of dissolution rate between HCl concentrations ([1]; rotating disk, 0.1, 0.01 or 0.001N HCl) | Rank order of dissolution rate with pH ([1]; rotating disk, chloride ion concentration normalized to 0.1N HCl) [N>0.01N>0.001N HCl] | Observable changes of the solid in stereomicroscope images ([2]; 0.001 HCl, 5 mL/min) | Time after which the dissolution rate is relatively constant ([2]; 0.001 HCl, 5 mL/min (FIG. 22)) [min] | Salt transformation observed during dissolution ([2]; 0.1N HCl, 25 ml/min) | Time until which the new solid grows before it is washed away with the fluid ([2]; 0.1N HCl, 25 ml/min) [min] | Observation of drug compact during dissolution ([2]; 0.1N HCl, 25 ml/min, after five minutes (FIG. 24)) | Time of change in slope of cumulative amount dissolved vs. time curve ([1]; rotating disk, 0.001N HCl, 50 rpm, preliminary data (FIG. 20)) | Course of dissolution rate with time ([3]; rotating disk, 25, 80 and 200 rpm, 10−4N NaOH (FIG. 30)) | Dissolution Rate ([3]; 25 rpm) [ug/cm^2min] | Dissolution Rate ([3]; 80 rpm) [ug/cm^2min] | Dissolution Rate ([3]; 200 rpm) [ug/cm^2min] | Course of dissolution rate with time ([4]; 0.5-20 mL/min, 10−4N NaOH (FIG. 33)) | Dissolution Rate ([4]; flow rate 0.5 ml/min) [ug/cm^2min] | Dissolution Rate ([4]; flow rate 1.5 ml/min) [ug/cm^2min] | Dissolution Rate ([4]; flow rate 7.0 ml/min) [ug/cm^2min] | Dissolution Rate ([4]; flow rate 20 ml/min) [ug/cm^2min]
Triamterene citrate | highest dissolution rate in 0.01N HCl | 0.1 | – | – | – | – | – | – | – | – | – | – | – | – | – | – | –
Nc1nc(N)c2nc(-c3ccccc3)c(N)nc2n1 [Triamterene free base, Triamterene] | – | – | did not reveal any observable changes | 25 | significant hydrochloride salt growth on the drug surface | 15 | nucleation and significant crystal growth has occurred | approximately 45 minutes | initial decrease in the dissolution rate with time | 0.8 | 1.5 | 2.3 | decrease of dissolution rate with time | 1.1 | 1.5 | 2.7 | 4.7

Source: patent US7892492B2, “Flow-through apparatus for microscopic investigation of dissolution of pharmaceutical solids” (University of Connecticut, priority 2006, dated 2011)
